Key:
[1] = target: T1, ATP-dependent translocase ABCB1 (Homo sapiens, UniProt P08183, T1226Y); assay: Negative allosteric modulator activity at human P-gp T1226Y mutant expressed in HEK293FT cells assessed as increase in intracellular doxorubicin accumulation using doxorubicin as substrate at 1 uM incubated for 150 mins by microplate reader assay (reference value: 67.4 +/- 2 %); format: cell-based; details: 2.5 h
[2] = target: T2, ATP-dependent translocase ABCB1 (Homo sapiens, UniProt P08183, Q1193E); assay: Negative allosteric modulator activity at human P-gp Q1193E mutant expressed in HEK293FT cells assessed as increase in intracellular doxorubicin accumulation using doxorubicin as substrate at 1 uM incubated for 150 mins by microplate reader assay (reference value: 62.9 +/- 1.4 %); format: cell-based; details: 2.5 h
[3] = target: T3, ATP-dependent translocase ABCB1 (Homo sapiens, UniProt P08183); assay: Negative allosteric modulator activity at P-gp in human LCC6MDR cells overexpressing P-gp assessed as reversal of P-gp mediated paclitaxel resistance activity by measuring relative fold at 1 uM incubated for 5 days by MTS assay; format: cell-based; details: 120 h, time 5 day
T3 sequence (P08183 whole entry): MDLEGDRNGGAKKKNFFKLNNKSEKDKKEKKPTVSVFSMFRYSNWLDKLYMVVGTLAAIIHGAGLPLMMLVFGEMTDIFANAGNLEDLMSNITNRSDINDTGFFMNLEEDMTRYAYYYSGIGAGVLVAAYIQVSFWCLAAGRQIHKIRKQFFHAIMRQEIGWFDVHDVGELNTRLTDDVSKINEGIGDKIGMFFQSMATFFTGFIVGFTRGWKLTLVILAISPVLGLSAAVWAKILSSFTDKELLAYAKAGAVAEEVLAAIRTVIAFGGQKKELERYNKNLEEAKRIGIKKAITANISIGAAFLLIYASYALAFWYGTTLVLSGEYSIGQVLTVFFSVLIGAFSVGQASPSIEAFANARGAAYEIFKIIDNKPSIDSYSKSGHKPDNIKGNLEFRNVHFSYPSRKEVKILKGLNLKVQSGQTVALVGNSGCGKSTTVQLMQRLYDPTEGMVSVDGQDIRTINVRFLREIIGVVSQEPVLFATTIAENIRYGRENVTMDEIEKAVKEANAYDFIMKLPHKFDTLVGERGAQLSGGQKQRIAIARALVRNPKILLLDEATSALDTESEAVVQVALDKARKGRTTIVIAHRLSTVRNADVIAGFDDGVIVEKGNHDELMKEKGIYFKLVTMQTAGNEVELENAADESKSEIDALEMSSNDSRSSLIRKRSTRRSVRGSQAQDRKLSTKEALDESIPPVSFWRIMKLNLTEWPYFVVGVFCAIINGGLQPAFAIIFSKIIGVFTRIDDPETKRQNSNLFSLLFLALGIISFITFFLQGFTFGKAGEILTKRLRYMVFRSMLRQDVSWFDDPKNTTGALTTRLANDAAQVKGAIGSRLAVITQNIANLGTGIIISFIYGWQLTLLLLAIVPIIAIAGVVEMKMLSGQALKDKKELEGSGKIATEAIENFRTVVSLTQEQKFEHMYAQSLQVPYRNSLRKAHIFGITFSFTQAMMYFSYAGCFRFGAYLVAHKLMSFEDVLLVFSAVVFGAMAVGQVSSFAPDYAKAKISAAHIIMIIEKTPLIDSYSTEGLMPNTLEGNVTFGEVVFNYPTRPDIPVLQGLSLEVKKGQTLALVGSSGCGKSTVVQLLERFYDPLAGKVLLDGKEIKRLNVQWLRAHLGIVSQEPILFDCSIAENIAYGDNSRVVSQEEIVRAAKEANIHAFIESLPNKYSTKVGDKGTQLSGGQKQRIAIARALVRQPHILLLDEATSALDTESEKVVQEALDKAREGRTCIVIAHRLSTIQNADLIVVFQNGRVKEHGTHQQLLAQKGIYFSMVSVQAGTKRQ

[4] = target: ATP-dependent translocase ABCB1 (Homo sapiens, UniProt P08183, T1226W); assay: Negative allosteric modulator activity at human P-gp T1226W mutant expressed in HEK293FT cells assessed as increase in intracellular doxorubicin accumulation using doxorubicin as substrate at 1 uM incubated for 150 mins by microplate reader assay (reference value: 66.7 +/- 1.5 %); format: cell-based; details: 2.5 h
[5] = target: T4, ATP-dependent translocase ABCB1 (Homo sapiens, UniProt P08183, C1227A); assay: Negative allosteric modulator activity at human P-gp C1227A mutant expressed in HEK293FT cells assessed as fold change in intracellular doxorubicin accumulation using doxorubicin as substrate at 1 uM incubated for 150 mins by microplate reader assay relative to DMSO; format: cell-based; details: 2.5 h
[6] = target: T3, ATP-dependent translocase ABCB1; assay: Negative allosteric modulator activity at human wildtype P-gp expressed in HEK293FT cells assessed as reversal of P-gp mediated PTX resistance by measuring sensitivity fold change incubated for 5 days by MTS assay; format: cell-based; details: 120 h, time 5 day
[7] = target: ATP-dependent translocase ABCB1 (Homo sapiens, UniProt P08183, I1115K); assay: Negative allosteric modulator activity at human P-gp I1115K mutant expressed in HEK293FT cells assessed as fold change in intracellular doxorubicin accumulation using doxorubicin as substrate at 1 uM incubated for 150 mins by microplate reader assay relative to DMSO; format: cell-based; details: 2.5 h
[8] = target: T5, ATP-dependent translocase ABCB1 (Homo sapiens, UniProt P08183, Q1193N); assay: Negative allosteric modulator activity at human P-gp Q1193N mutant expressed in HEK293FT cells assessed as reversal of P-gp mediated PTX resistance by measuring sensitivity fold change incubated for 5 days by MTS assay; format: cell-based; details: 120 h, time 5 day
T5 sequence (P08183 whole entry Q1193N): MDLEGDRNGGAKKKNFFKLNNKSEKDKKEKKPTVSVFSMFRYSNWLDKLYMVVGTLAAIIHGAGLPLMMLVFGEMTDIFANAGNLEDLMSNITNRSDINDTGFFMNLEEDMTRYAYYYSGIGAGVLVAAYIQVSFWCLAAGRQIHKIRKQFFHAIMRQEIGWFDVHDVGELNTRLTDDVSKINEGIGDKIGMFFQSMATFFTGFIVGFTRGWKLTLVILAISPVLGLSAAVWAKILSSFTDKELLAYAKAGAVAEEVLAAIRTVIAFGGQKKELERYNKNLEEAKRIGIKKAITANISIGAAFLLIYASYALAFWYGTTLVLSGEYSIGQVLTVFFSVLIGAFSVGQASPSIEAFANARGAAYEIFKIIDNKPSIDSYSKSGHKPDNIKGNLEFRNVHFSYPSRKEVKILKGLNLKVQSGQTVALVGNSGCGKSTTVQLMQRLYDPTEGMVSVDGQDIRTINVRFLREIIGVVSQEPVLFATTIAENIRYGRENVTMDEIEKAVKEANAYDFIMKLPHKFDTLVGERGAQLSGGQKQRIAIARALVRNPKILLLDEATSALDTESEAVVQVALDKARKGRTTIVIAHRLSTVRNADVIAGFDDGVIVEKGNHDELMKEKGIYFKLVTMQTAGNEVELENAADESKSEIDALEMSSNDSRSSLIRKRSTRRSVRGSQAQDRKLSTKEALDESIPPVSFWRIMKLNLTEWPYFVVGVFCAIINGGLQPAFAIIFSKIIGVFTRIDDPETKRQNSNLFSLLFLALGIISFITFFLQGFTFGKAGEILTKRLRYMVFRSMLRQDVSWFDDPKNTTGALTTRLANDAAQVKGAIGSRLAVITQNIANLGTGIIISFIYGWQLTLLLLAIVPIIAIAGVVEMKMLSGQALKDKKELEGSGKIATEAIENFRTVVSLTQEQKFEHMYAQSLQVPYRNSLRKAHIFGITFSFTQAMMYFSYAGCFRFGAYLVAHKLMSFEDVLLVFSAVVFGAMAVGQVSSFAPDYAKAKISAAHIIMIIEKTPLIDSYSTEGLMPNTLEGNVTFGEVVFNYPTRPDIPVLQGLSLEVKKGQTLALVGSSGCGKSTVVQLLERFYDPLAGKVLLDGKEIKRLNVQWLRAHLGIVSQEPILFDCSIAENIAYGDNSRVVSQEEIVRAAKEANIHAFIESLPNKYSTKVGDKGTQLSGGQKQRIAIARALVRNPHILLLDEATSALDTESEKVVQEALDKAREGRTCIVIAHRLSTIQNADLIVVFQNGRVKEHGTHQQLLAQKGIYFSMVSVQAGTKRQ

[9] = target: T1, ATP-dependent translocase ABCB1; assay: Negative allosteric modulator activity at human P-gp T1226Y mutant expressed in HEK293FT cells assessed as fold change in intracellular doxorubicin accumulation using doxorubicin as substrate at 1 uM incubated for 150 mins by microplate reader assay relative to DMSO; format: cell-based; details: 2.5 h
[10] = target: ATP-dependent translocase ABCB1 (Homo sapiens, UniProt P08183, L1113A); assay: Negative allosteric modulator activity at human P-gp L1113A mutant expressed in HEK293FT cells assessed as reversal of P-gp mediated PTX resistance by measuring sensitivity fold change incubated for 5 days by MTS assay; format: cell-based; details: 120 h, time 5 day
[11] = target: P-gp (ABCB1) Q1193A mutant (Homo sapiens, UniProt P08183, Q1193A); assay: Activation of P-gp ATPase activity in human P-gp Q1193A mutant expressed in HEK293FT cell microsomes assessed as fold change of ATPase activity at 20 uM incubated for 1 hr in presence of ATP by Glo-luminescence based microplate reader assay relative to DMSO; set-up: species or system Microsome; details: read-out: FC
[12] = target: T2, ATP-dependent translocase ABCB1; assay: Negative allosteric modulator activity at human P-gp Q1193E mutant expressed in HEK293FT cells assessed as reversal of P-gp mediated PTX resistance by measuring sensitivity fold change incubated for 5 days by MTS assay; format: cell-based; details: 120 h, time 5 day
[13] = target: T6, ATP-dependent translocase ABCB1 (Homo sapiens, UniProt P08183, Q1193C); assay: Negative allosteric modulator activity at human P-gp Q1193C mutant expressed in HEK293FT cells assessed as fold change in intracellular doxorubicin accumulation using doxorubicin as substrate at 1 uM incubated for 150 mins by microplate reader assay relative to DMSO; format: cell-based; details: 2.5 h
T6 sequence (P08183 whole entry Q1193C): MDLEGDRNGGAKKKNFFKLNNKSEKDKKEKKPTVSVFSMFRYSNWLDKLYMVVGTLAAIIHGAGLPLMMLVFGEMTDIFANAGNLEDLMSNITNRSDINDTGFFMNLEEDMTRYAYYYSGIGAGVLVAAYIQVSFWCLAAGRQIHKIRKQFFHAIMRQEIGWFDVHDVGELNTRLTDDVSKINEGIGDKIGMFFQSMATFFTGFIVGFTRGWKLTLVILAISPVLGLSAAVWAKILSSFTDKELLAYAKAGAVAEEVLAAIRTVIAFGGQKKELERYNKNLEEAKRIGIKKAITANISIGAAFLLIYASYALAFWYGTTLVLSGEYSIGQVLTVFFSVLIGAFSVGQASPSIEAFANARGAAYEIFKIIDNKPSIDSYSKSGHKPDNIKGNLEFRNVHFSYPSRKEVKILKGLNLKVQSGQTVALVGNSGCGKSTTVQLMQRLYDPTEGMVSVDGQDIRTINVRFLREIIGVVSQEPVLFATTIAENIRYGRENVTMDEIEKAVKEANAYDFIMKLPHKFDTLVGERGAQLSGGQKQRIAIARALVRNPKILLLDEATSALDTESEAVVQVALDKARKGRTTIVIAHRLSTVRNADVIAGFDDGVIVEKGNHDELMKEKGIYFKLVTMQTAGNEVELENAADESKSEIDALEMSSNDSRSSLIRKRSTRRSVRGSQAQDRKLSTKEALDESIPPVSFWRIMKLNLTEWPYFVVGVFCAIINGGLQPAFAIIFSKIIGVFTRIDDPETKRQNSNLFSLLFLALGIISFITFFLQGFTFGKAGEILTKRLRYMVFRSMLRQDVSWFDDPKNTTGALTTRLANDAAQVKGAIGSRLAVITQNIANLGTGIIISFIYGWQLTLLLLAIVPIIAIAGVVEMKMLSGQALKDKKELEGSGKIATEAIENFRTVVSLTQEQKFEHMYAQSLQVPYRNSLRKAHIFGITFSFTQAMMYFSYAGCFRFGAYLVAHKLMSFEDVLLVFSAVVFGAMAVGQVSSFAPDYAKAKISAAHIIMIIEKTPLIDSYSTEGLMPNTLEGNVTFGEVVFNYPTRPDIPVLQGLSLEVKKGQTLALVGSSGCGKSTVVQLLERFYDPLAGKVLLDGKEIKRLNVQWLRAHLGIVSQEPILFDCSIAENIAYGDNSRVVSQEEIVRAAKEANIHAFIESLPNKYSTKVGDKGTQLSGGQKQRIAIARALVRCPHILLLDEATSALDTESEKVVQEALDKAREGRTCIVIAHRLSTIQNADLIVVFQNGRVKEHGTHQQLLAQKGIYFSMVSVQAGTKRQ

[14] = target: ATP-dependent translocase ABCB1 (Homo sapiens, UniProt P08183, Q1193F); assay: Negative allosteric modulator activity at human P-gp Q1193F mutant expressed in HEK293FT cells assessed as fold change in intracellular doxorubicin accumulation using doxorubicin as substrate at 1 uM incubated for 150 mins by microplate reader assay relative to DMSO; format: cell-based; details: 2.5 h
[15] = target: T6, ATP-dependent translocase ABCB1; assay: Negative allosteric modulator activity at human P-gp Q1193C mutant expressed in HEK293FT cells assessed as reversal of P-gp mediated PTX resistance by measuring sensitivity fold change incubated for 5 days by MTS assay; format: cell-based; details: 120 h, time 5 day
[16] = target: ATP-dependent translocase ABCB1 (Homo sapiens, UniProt P08183, I1115A); assay: Negative allosteric modulator activity at human P-gp I1115A mutant expressed in HEK293FT cells assessed as fold change in intracellular doxorubicin accumulation using doxorubicin as substrate at 1 uM incubated for 150 mins by microplate reader assay relative to DMSO; format: cell-based; details: 2.5 h
[17] = target: T7, ATP-dependent translocase ABCB1 (Homo sapiens, UniProt P08183, T1226A); assay: Negative allosteric modulator activity at human P-gp T1226A mutant expressed in HEK293FT cells assessed as fold change in intracellular doxorubicin accumulation using doxorubicin as substrate at 1 uM incubated for 150 mins by microplate reader assay relative to DMSO; format: cell-based; details: 2.5 h
[18] = target: T7, ATP-dependent translocase ABCB1; assay: Negative allosteric modulator activity at human P-gp T1226A mutant expressed in HEK293FT cells assessed as increase in intracellular doxorubicin accumulation using doxorubicin as substrate at 1 uM incubated for 150 mins by microplate reader assay (reference value: 89 +/- 4 %); format: cell-based; details: 2.5 h
[19] = target: T4, ATP-dependent translocase ABCB1; assay: Negative allosteric modulator activity at human P-gp C1227A mutant expressed in HEK293FT cells assessed as reversal of P-gp mediated PTX resistance by measuring sensitivity fold change incubated for 5 days by MTS assay; format: cell-based; details: 120 h, time 5 day
[20] = target: ATP-dependent translocase ABCB1 (Homo sapiens, UniProt P08183, I1115Y); assay: Negative allosteric modulator activity at human P-gp I1115Y mutant expressed in HEK293FT cells assessed as fold change in intracellular doxorubicin accumulation using doxorubicin as substrate at 1 uM incubated for 150 mins by microplate reader assay relative to DMSO; format: cell-based; details: 2.5 h
[21] = target: T3, ATP-dependent translocase ABCB1; assay: Negative allosteric modulator activity at human wildtype P-gp expressed in HEK293FT cells assessed as increase in intracellular doxorubicin accumulation using doxorubicin as substrate at 1 uM incubated for 150 mins by microplate reader assay (reference value: 47.9 +/- 3.5 %); format: cell-based; details: 2.5 h
[22] = target: T5, ATP-dependent translocase ABCB1; assay: Negative allosteric modulator activity at human P-gp Q1193N mutant expressed in HEK293FT cells assessed as increase in intracellular doxorubicin accumulation using doxorubicin as substrate at 1 uM incubated for 150 mins by microplate reader assay (reference value: 59.7 +/- 2.1 %); format: cell-based; details: 2.5 h

T1 sequence (P08183 whole entry T1226Y): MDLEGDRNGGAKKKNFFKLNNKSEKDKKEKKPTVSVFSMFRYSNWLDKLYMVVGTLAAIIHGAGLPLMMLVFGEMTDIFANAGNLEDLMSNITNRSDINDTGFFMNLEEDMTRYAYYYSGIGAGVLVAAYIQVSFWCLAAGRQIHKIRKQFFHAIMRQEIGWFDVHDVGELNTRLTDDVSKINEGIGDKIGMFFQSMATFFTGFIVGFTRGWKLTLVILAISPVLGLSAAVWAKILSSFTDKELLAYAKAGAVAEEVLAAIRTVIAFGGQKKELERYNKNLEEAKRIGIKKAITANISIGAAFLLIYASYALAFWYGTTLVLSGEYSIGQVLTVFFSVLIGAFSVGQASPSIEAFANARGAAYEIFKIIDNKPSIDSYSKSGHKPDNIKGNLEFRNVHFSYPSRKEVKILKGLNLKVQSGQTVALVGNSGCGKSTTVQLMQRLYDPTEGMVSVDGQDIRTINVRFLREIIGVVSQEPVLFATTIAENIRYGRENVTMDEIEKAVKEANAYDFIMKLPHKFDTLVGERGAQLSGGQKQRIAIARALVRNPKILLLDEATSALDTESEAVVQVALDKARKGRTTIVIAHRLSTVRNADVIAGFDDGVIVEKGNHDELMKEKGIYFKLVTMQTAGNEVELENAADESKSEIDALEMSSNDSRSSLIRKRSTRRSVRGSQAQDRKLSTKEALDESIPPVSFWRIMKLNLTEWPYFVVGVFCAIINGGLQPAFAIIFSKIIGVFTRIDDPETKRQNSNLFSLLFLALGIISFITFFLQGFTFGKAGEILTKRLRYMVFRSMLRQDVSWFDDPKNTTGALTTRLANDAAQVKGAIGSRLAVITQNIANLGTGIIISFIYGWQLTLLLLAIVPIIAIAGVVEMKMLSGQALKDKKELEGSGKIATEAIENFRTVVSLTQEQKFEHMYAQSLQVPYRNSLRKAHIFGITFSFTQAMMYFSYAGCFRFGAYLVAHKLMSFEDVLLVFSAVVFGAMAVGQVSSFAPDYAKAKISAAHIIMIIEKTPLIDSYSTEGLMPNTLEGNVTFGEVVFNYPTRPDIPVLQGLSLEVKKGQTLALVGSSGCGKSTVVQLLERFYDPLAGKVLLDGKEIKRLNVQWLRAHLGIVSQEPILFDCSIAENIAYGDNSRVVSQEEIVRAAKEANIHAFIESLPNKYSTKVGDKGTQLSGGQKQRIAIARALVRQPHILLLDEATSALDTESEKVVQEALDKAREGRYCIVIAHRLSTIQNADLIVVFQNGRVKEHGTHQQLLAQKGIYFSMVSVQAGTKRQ

O=c1cc(-c2ccc(OCCOCCNCc3ccccc3)cc2)oc2ccccc12
Activity [1]: 104%
Activity [2]: 71.4%
fold change (FC) [3]: 34.1
Activity [4]: 102.4%
fold change (FC) [5]: 1.3
fold change (FC) [6]: 73
fold change (FC) [7]: 1
fold change (FC) [8]: 51.4
fold change (FC) [9]: 1.5
fold change (FC) [10]: 140.5
fold induction at 1 h, 20 µM [11]: 1.1
fold change (FC) [12]: 4.3
fold change (FC) [13]: 1.3
fold change (FC) [14]: 1.2
fold change (FC) [15]: 12.4
fold change (FC) [16]: 1
fold change (FC) [17]: 1
Activity [18]: 85.8%
fold change (FC) [19]: 67.7
fold change (FC) [20]: 1
Activity [21]: 90.1%
Activity [22]: 91.9%

Reference: ChEMBL document CHEMBL5338754, “Identification of Binding Sites in the Nucleotide-Binding Domain of P-Glycoprotein for a Potent and Nontoxic Modulator, the Amine-Containing Monomeric Flavonoid FM04” (J Med Chem, 2023)
